Measured values published in US9132108B2, “Pharmaceutical composition for ameliorating and/or preventing leptin resistance, and use thereof” (HIROSHIMA UNIVERSITY, priority 2009, dated 2015).

What was measured:
GRP78 and CHOP = conditions: described in Patent Literature 1; cited from earlier work
[1] = test system: mice given high-fat diet (leptin resistance); experiment: Body weight of mice given high-fat or normal diet with flurbiprofen for 8 weeks (Example 1); assay type: in vivo, mouse; conditions: approximately 10 mg/kg per day orally in drinking water
Protocol: In the Examples, 4 weeks-old male mice (C57BL/6 Cr Slc, SHIMIZU Laboratory Supplies Co., Ltd.) were used as laboratory animals. All the animal tests in the Examples were carried out according to the NIH Guide for Care and Use of Laboratory Animals.
Mice were divided into four groups each consisting of 7-8 mice. Mice of individual groups were given diets as follows. • Group 1: Normal diet (10 kcal % fat, D12450B, produced by Research Diets, Inc.) only • Group 2: High-fat diet (60 kcal % fat, D12492, produced by Research Diets, Inc.) only • Group 3: Normal diet+flurbiprofen (F8514, produced by SIGMA) • Group 4: High-fat diet+flurbiprofen (F8514, produced by SIGMA)
Flurbiprofen was diluted with drinking water so that the administration amount of flurbiprofen would be approximately 10 mg/kg per day, and was orally administered to the mice in the form of drinking water. Thereafter, the mice were weighed every 7 days.
FIG. 3 is a graph showing changes in body weights of the mice of individual groups during 8 weeks after flurbiprofen administration. Values in the graph of FIG. 3 are averages of body weights of mice of each group (± their standard deviations) (n=7-8 with respect to each group). Further, statistic analysis was carried out using t-test.

## C[C@@H](C(=O)O)c1ccc(-c2ccccc2)c(F)c1 [flurbiprofen]
GRP78 and CHOP
  expression of GRP78 and CHOP induced by endoplasmic reticulum stress: prevented
[1]; Group 3 (normal diet+flurbiprofen) vs Group 1 (normal diet only)
  body weight: no significant difference in body weight
[1]; Group 4 (high-fat diet+flurbiprofen) vs Group 2 (high-fat diet only), significance level <5%
  body weight: prevented an increase in body weight
